Results taken from the supplement of paper PMC11451515.

Key:
Conditions in all cases: 48 h
[1] = test system: NOMO1; assay: cell viability relative to DMSO control; higher = less cytotoxic
Summary of the method: (§1)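 Leukemia cells (NOMO1 or SEM, 500 cells/well; P12-Ichikawa, 1000 cells/well) were seeded in 5 μl in 1536-well plates after at least four passages of adaptation to each medium. They received library compounds in DMSO by pin dosing, 11 threefold points from 47 μM to 0.79 nM. Luminescence with CellTiter-Glo One was read after 48 h at 37°C. Viability is stated per plate relative to DMSO wells, with cell-free wells as background.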

[2] = test system: P12-Ichikawa; assay: as above
Summary of the method: as §1

[3] = test system: SEM cells; assay: as above
Summary of the method: as §1

[4] = test system: NOMO1; assay: AUC of viability dose-response curve (% viability x log10 dose units); higher = less sensitive
Summary of the method: (§2)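 Leukemia cells adapted to each medium were seeded in 1536-well plates (500 or 1000 cells/well). They were dosed with library compounds in DMSO at 11 threefold doses, 47 μM to 0.79 nM, for 48 h at 37°C. CellTiter-Glo One luminescence was normalised per plate to DMSO and cell-free wells. Area under the curve was integrated by trapezoidal rule over log10 doses on a four-parameter log-logistic fit; curves exceeding full viability were scaled and curves failing quality control removed.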

[5] = test system: P12-Ichikawa; assay: as above
Summary of the method: as §2

[6] = test system: SEM cells; assay: as above
Summary of the method: as §2

CC(C)(C)Cn1c(N)nc2ccc(-c3[nH]c(C(C)(C)C)nc3-c3ccc(F)cc3)nc21
cell viability [%]
Conditions | [1] | [2] | [3]
HPLM + 10% dialyzed FBS, 0.000781 µM | 84.9 | 92.1 | 97.1
HPLM + 10% dialyzed FBS, 0.00234 µM | 84.6 | 96.3 | 94.9
HPLM + 10% dialyzed FBS, 0.00702 µM | 79.9 | 92.3 | 84.7
HPLM + 10% dialyzed FBS, 0.0211 µM | 78.4 | 96 | 87.8
HPLM + 10% dialyzed FBS, 0.0632 µM | 90.8 | 87.2 | 91.5
HPLM + 10% dialyzed FBS, 0.19 µM | 81 | 78.7 | 82.2
HPLM + 10% dialyzed FBS, 0.569 µM | 83.6 | 90.1 | 85.2
HPLM + 10% dialyzed FBS, 1.71 µM | 64.3 | 78.9 | 79.1
HPLM + 10% dialyzed FBS, 5.12 µM | 75.3 | 91.5 | 84.5
HPLM + 10% dialyzed FBS, 15.4 µM | 64.7 | 85.3 | 77.6
HPLM + 10% dialyzed FBS, 46.1 µM | 49.6 | 85.4 | 73.5
RPMI 5 mM glucose + 10% FBS, 0.000781 µM | 84.3 | 95.4 | 123
RPMI 5 mM glucose + 10% FBS, 0.00234 µM | 88.4 | 83.8 | 111
RPMI 5 mM glucose + 10% FBS, 0.00702 µM | 76.3 | 78.3 | 108
RPMI 5 mM glucose + 10% FBS, 0.0211 µM | 75.9 | 90.6 | 157
RPMI 5 mM glucose + 10% FBS, 0.0632 µM | 90.8 | 86.4 | 146
RPMI 5 mM glucose + 10% FBS, 0.19 µM | 79.9 | 94.1 | 78.1
RPMI 5 mM glucose + 10% FBS, 0.569 µM | 82.9 | 83 | 54.1
RPMI 5 mM glucose + 10% FBS, 1.71 µM | 87.2 | 81.2 | 88.5
RPMI 5 mM glucose + 10% FBS, 5.12 µM | 79.5 | 77.9 | 91.9
RPMI 5 mM glucose + 10% FBS, 15.4 µM | 83.2 | 95.5 | 15.4
RPMI 5 mM glucose + 10% FBS, 46.1 µM | 76.4 | 89.1 | 59.3
RPMI 5 mM glucose + 10% dialyzed FBS, 0.000781 µM | 85.3 | 85.8 | 102
RPMI 5 mM glucose + 10% dialyzed FBS, 0.00234 µM | 92.7 | 83.4 | 98.5
RPMI 5 mM glucose + 10% dialyzed FBS, 0.00702 µM | 93.5 | 85.4 | 79.3
RPMI 5 mM glucose + 10% dialyzed FBS, 0.0211 µM | 92.2 | 84.5 | 90.9
RPMI 5 mM glucose + 10% dialyzed FBS, 0.0632 µM | 87.7 | 86.1 | 106
RPMI 5 mM glucose + 10% dialyzed FBS, 0.19 µM | 90.3 | 89.1 | 87.9
RPMI 5 mM glucose + 10% dialyzed FBS, 0.569 µM | 73.1 | 83.6 | 90
RPMI 5 mM glucose + 10% dialyzed FBS, 1.71 µM | 73.3 | 84.1 | 87
RPMI 5 mM glucose + 10% dialyzed FBS, 5.12 µM | 92 | 77.9 | 85.3
RPMI 5 mM glucose + 10% dialyzed FBS, 15.4 µM | 81.2 | 83 | 13.4
RPMI 5 mM glucose + 10% dialyzed FBS, 46.1 µM | 71.4 | 81 | 98.2

AUC of viability dose-response curve
Conditions | [4] | [5] | [6]
HPLM + 10% dialyzed FBS | 367 | 422 | 407
RPMI 5 mM glucose + 10% FBS | 392 | 414 | 347
RPMI 5 mM glucose + 10% dialyzed FBS | 405 | 401 | 412

CCCCOc1ccc(CC(=O)NO)cc1
cell viability [%]
Conditions | [1] | [2] | [3]
HPLM + 10% dialyzed FBS, 0.000781 µM | 122 | 108 | 107
HPLM + 10% dialyzed FBS, 0.00234 µM | 124 | 108 | 115
HPLM + 10% dialyzed FBS, 0.00702 µM | 114 | 108 | 105
HPLM + 10% dialyzed FBS, 0.0211 µM | 121 | 110 | 125
HPLM + 10% dialyzed FBS, 0.0632 µM | 101 | 111 | 101
HPLM + 10% dialyzed FBS, 0.19 µM | 104 | 102 | 102
HPLM + 10% dialyzed FBS, 0.569 µM | 104 | 102 | 109
HPLM + 10% dialyzed FBS, 1.71 µM | 109 | 105 | 91.3
HPLM + 10% dialyzed FBS, 5.12 µM | 107 | 107 | 101
HPLM + 10% dialyzed FBS, 15.4 µM | 95.4 | 97.5 | 76.4
HPLM + 10% dialyzed FBS, 46.1 µM | 85.3 | 67.7 | 51.8
RPMI 5 mM glucose + 10% FBS, 0.000781 µM | 101 | 115 | 116
RPMI 5 mM glucose + 10% FBS, 0.00234 µM | 110 | 115 | 99.5
RPMI 5 mM glucose + 10% FBS, 0.00702 µM | 122 | 102 | 109
RPMI 5 mM glucose + 10% FBS, 0.0211 µM | 99.3 | 116 | 116
RPMI 5 mM glucose + 10% FBS, 0.0632 µM | 97.4 | 109 | 97
RPMI 5 mM glucose + 10% FBS, 0.19 µM | 118 | 111 | 113
RPMI 5 mM glucose + 10% FBS, 0.569 µM | 108 | 105 | 114
RPMI 5 mM glucose + 10% FBS, 1.71 µM | 108 | 101 | 104
RPMI 5 mM glucose + 10% FBS, 5.12 µM | 96.1 | 100 | 109
RPMI 5 mM glucose + 10% FBS, 15.4 µM | 97.2 | 96.4 | 108
RPMI 5 mM glucose + 10% FBS, 46.1 µM | 81.2 | 59.1 | 46.5
RPMI 5 mM glucose + 10% dialyzed FBS, 0.000781 µM | 107 | 114 | 107
RPMI 5 mM glucose + 10% dialyzed FBS, 0.00234 µM | 123 | 109 | 122
RPMI 5 mM glucose + 10% dialyzed FBS, 0.00702 µM | 116 | 113 | 108
RPMI 5 mM glucose + 10% dialyzed FBS, 0.0211 µM | 126 | 108 | 116
RPMI 5 mM glucose + 10% dialyzed FBS, 0.0632 µM | 109 | 110 | 98.7
RPMI 5 mM glucose + 10% dialyzed FBS, 0.19 µM | 111 | 104 | 115
RPMI 5 mM glucose + 10% dialyzed FBS, 0.569 µM | 109 | 108 | 109
RPMI 5 mM glucose + 10% dialyzed FBS, 1.71 µM | 103 | 106 | 113
RPMI 5 mM glucose + 10% dialyzed FBS, 5.12 µM | 95 | 98.3 | 107
RPMI 5 mM glucose + 10% dialyzed FBS, 15.4 µM | 94.7 | 92.4 | 102
RPMI 5 mM glucose + 10% dialyzed FBS, 46.1 µM | 86.9 | 59.2 | 39.9

AUC of viability dose-response curve
Conditions | [4] | [5] | [6]
HPLM + 10% dialyzed FBS | 417 | 464 | 440
RPMI 5 mM glucose + 10% FBS | 459 | 457 | 463
RPMI 5 mM glucose + 10% dialyzed FBS | 439 | 454 | 458
